Test [1] has as its target Human immunodeficiency virus type 1 integrase (Human immunodeficiency virus 1, UniProt Q7ZJM1). The test can be described thus: Inhibition of HIV-1 integrase-mediated 3'-processing and strand transfer activity.
Test [2] concerns Human immunodeficiency virus 1. The test can be described thus: Antiviral activity against HIV1 by cell based luciferase assay. The test is classed as functional, organism-based.
The subject of test [3] is Human immunodeficiency virus 1. Kind of test: Antiviral activity against HIV1 assessed as inhibition of viral replication after 6 days by cell based p24 antigen assay. The settings on record: Human immunodeficiency virus 1, 144 h.
The subject of test [4] is Human immunodeficiency virus 1. Kind of test: Antiviral activity against HIV1 by cell based luciferase assay in presence of 50% serum. The test is classed as functional.

Human immunodeficiency virus type 1 integrase, sequence (Q7ZJM1 whole entry): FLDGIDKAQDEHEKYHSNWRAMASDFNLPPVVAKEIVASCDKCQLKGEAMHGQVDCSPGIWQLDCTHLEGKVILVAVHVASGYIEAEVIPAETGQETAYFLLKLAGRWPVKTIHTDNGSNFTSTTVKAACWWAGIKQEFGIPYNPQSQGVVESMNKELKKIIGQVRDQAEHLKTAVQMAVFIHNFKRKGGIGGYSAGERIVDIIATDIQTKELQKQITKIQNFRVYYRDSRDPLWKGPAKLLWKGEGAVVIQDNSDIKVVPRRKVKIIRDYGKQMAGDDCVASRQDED

As to `O=c1c(O)c(-c2ncc(Cc3ccc(F)cc3)s2)nc2c(N3CCCS3(=O)=O)cc(N3CCOCC3)cn12`, inhibition in test [1] was half-maximal at 0.036 µM (IC50). In addition, in test [2], the EC50 – broadly, the concentration that produces a half-maximal response – turned out to be 0.0115 µM.

Take `O=c1c(O)c(-c2ncc(Cc3ccc(F)cc3)s2)nc2ccc(N3CCOCC3)cn12`: the concentration for half-maximal inhibition (IC50) (commonly the midpoint of a concentration-inhibition curve) in test [1] is 0.02 µM. For the same molecule, the results for the EC50 in test [2] and in test [3] were 0.032 µM and 0.0165 µM, respectively.

Regarding `O=c1c(O)c(-c2ncc(Cc3ccc(F)cc3)s2)nc2c(Br)cc(N3CCOCC3)cn12`, in test [1], the IC50 was determined as 0.042 µM. For the same molecule, the EC50 in test [2] is 0.014 µM; in test [3], 0.00435 µM.

Turning to `O=C(NCc1ccc(F)cc1)c1nc2ccc(N3CCOCC3)cn2c(=O)c1O`, in test [1], the IC50 stood at 0.775 µM. Besides, the EC50 is 0.215 µM in test [2] and 0.028 µM in test [3].

As for `O=c1c(O)c(-c2nnc(Cc3ccc(F)cc3)o2)nc2ccc(N3CCOCC3)cn12`, in test [1], the IC50 was 0.31 µM. The EC50 in test [3] amounted to 0.215 µM.

On to `O=c1c(O)c(-c2noc(Cc3ccc(F)cc3)n2)nc2ccc(N3CCOCC3)cn12`, for which the IC50 in test [1] came out at 0.45 µM. Further, in test [3], the EC50 is 0.099 µM.

The molecule `O=c1c(O)c(-c2nnc(Cc3ccc(F)cc3)[nH]2)nc2ccc(N3CCOCC3)cn12` had an EC50 in test [2] of 0.198 µM.

Molecule `O=c1c(O)c(-c2nnc(Cc3ccc(F)cc3)s2)nc2ccc(N3CCOCC3)cn12` showed an IC50 in test [1] of 0.225 µM. Moreover, the EC50 in test [3] is 0.014 µM.

Molecule `O=c1c(O)c(-c2nc(Cc3ccc(F)cc3)no2)nc2ccc(N3CCOCC3)cn12` gave an IC50 in test [1] above 10 µM. In addition, the EC50 in test [2] is above 1 µM.

Regarding `O=c1c(O)c(-c2ncc(Cc3ccc(F)cc3)o2)nc2ccc(N3CCOCC3)cn12`, in test [1], inhibition was half-maximal at 0.059 µM (IC50). For the same molecule, the EC50 was determined as 0.0215 µM in test [2] and 0.006 µM in test [3].

`O=c1c(O)c(-c2ncc(Cc3ccc(F)cc3)[nH]2)nc2ccc(N3CCOCC3)cn12`: it took 0.045 µM to reach half-maximal inhibition in test [1] (IC50). In addition, the EC50 in test [2] turned out to be 0.062 µM.

The molecule `O=c1c(O)c(-c2ncc(Cc3ccc(F)cc3)o2)nc2c(I)cc(N3CCOCC3)cn12` displayed an IC50 in test [1] of 0.17 µM. The EC50 came out at 0.009 µM in test [2] and 0.0026 µM in test [3].

Regarding `O=c1c(O)c(-c2ncc(Cc3ccc(F)cc3)[nH]2)nc2c(Br)cc(N3CCOCC3)cn12`, the EC50 in test [2] was determined as 0.029 µM.

In turn, `O=c1c(O)c(-c2ncc(Cc3ccc(F)cc3)o2)nc2c(N3CCCS3(=O)=O)cc(N3CCOCC3)cn12` returned an EC50 in test [2] above 1 µM.

Consider `O=c1c(O)c(-c2ncc(Cc3ccc(F)cc3)[nH]2)nc2c(N3CCCS3(=O)=O)cc(N3CCOCC3)cn12`, for which it took 0.095 µM to reach half-maximal inhibition in test [1] (IC50). In test [2], this molecule showed an EC50 above 1 µM.

As to `CN1CCN(c2cc(N3CCOCC3)cn3c(=O)c(O)c(-c4ncc(Cc5ccc(F)cc5)[nH]4)nc23)S1(=O)=O`, half-maximal inhibition in test [1] (IC50) required 0.07 µM. The molecule further returned an EC50 in test [2] of 0.011 µM.

For the molecule `O=C1OCCN1c1cc(N2CCOCC2)cn2c(=O)c(O)c(-c3ncc(Cc4ccc(F)cc4)[nH]3)nc12`, half-maximal inhibition in test [1] (IC50) was put at 0.035 µM. For the same molecule, the response in test [2] was half-maximal at 0.064 µM (EC50).

As for `O=C1CCCN1c1cc(N2CCOCC2)cn2c(=O)c(O)c(-c3ncc(Cc4ccc(F)cc4)[nH]3)nc12`, half-maximal inhibition in test [1] (IC50) required 0.047 µM. In addition, in test [2], the EC50 is 0.039 µM.

Regarding `CCN(C(=O)C(=O)N(C)C)c1cc(N2CCOCC2)cn2c(=O)c(O)c(-c3ncc(Cc4ccc(F)cc4)[nH]3)nc12`, the EC50 in test [2] was 0.086 µM.

`CC(C)N1CCN(c2cc(N3CCOCC3)cn3c(=O)c(O)c(-c4ncc(Cc5ccc(F)cc5)[nH]4)nc23)C1=O`: the EC50 in test [2] was found to be 0.006 µM. Also, the “fold change (FC)” value in test [4] is on record as below 3.
